Results on two molecules are retold here after article PMC8799360, “In Vitro and In Vivo Effect of Xylopic Acid on Cytochrome P450 Enzymes” (Advances in Pharmacological and Pharmaceutical Sciences, 2022).

For this test, the system named is T1, CYP 3A4.
T1 construct: liver microsomes from phenobarbitone-pretreated male rats
Description: fluorometric benzyloxyresorufin (BROD) assay in rat liver microsomes. In kind it is biochemical. Background: Liver microsomes are a subcellular fraction often used to study metabolism.

On to `C=C1[C@@H]2CC[C@H]3[C@]4(C)CCC[C@@](C)(C(=O)O)[C@H]4CC[C@]3(C2)[C@@H]1OC(C)=O` [XA, xylopic acid], for which the IC50 came to 1300 ± 10 nM.

As to `CC(=O)N1CCN(c2ccc(OC[C@H]3CO[C@](Cn4ccnc4)(c4ccc(Cl)cc4Cl)O3)cc2)CC1` (racemic) [ketoconazole], the IC50 came out at […].

For orientation: IC50 means the midpoint of a concentration-inhibition curve. Low values mean inhibition by little substance, high ones a need for much substance.
